Experiment [1] has as its system split-DISC (#3280 and #3207) dual-edited human CD4+ T cells. In words: Enrichment/expansion of split-DISC dual-edited CD4+ T cells. It is filed as cell-based. The note with it: 7-day treatment in AP21967 in gREX, from 340,000 cells seeded.
Procedure: Cells were bead-stimulated (CD3/CD28) for 3 days prior to editing. […] Panel C depicts flow plots show the percentage of GFP/mCherry double-positive cells on day 3 post-editing.
Dual-editing was performed as described in FIG. 70.
Split-DISC constructs were used to determine the enrichment and expansion of dual-edited T cells. The ability to scale up manufacturing to obtain cell numbers sufficient for animal studies by expanding edited CD4+ T cells in gREX flasks was assessed. In particular, dual-editing and enrichment of human CD4+ T Cells using split-DISC constructs was studied. […] Each repair template (#3280 and #3207) was flanked by identical homology arms matched to a gRNA targeting the TRAC locus. […] Cells were bead stimulated (CD3/CD28) for 3 days prior to editing. Immediately following electroporation, the cells were placed in 2.5% FBS containing media (recovery media) for ~24 hours and then maintained in 20% FBS containing media throughout the rest of the experiment. Three days post editing, cells were analyzed by flow for GFP and mCherry expression, and then expanded in media containing 50 ng/ml human IL-2 or 100 nM Rapalog.
Cells were bead stimulated (CD3/CD28) for 3 days prior to editing. Three days post editing, cells were analyzed by flow for GFP and mCherry expression, and then expanded in media containing 100 nM Rapalog for an additional 7 days.
The test system of experiment [2] is split IL-2 CISC (FRB-IL2RB and FKBP-IL2RG) dual-edited human CD4+ T cells. In words: Enrichment of split IL-2 CISC dual-edited CD4+ T cells. Type of experiment: cell-based. Here is the method:
FIG. 27 depicts an exemplary timeline of steps for dual AAV editing of CD4+ T cells, expansion with rapalog, and analysis of enriched cells. […] Flow cytometry to assess enrichment of GFP, mCherry double-positive cells was carried out on days 6, 8, and 10 post-editing.
CISC components (IL2RG vs. IL2RB) are split between 2 constructs and co-expressed with either HA-FoxP3 cDNA or the islet-specific TCR, T1D4 (AAVs #3240 and #3243 respectively). Each repair template is flanked by identical homology arms that […] the gRNA targeting the TRAC locus. […] Panel B depicts a timeline of key steps for dual AAV/RNP-based editing of CD4+ T cells, expansion with Rapalog and analysis of enriched cells. […] Flow cytometry to assess enrichment of HA-FoxP3, TCR double-positive cells was carried out on days 5 and 8 post-editing.
FIG. 60 relates to a strategy for testing two-loci dual-editing of human CD4+ T cells. […] CISC components are split between 2 constructs and co-expressed with either mCherry or GFP ([…]). Repair templates are flanked by homology arms matched to gRNAs targeting either the TRAC or FOXP3 locus, respectively. […] Panel B depicts a timeline showing steps for dual AAV editing of CD4+ T cells and expansion with Rapalog. Human CD4+ T cells were edited using human TRAC gRNA_4, human FOXP3 gRNA_T9 and #3251 (MND.mCherry.FKBP.IL2RG) and #3207 (MND.GFP.FRB.IL2RB) AAV constructs (two-loci dual editing). Immediately following electroporation, the cells were placed in either 20% or 2.5% FBS containing media (recovery media). After ~16 h, the media was replaced with 20% FBS containing media and FACS analysis done on day 3 to determine editing rate.
In order to obtain sufficient numbers of cells for therapeutic use, it may be useful, in some contexts, to selectively expand engineered cells in vitro. […] See e.g., FIG. 108. In such methods, FRB-IL2RB and FKBP-IL2RG components were contained in the same cassette to select for single integration events.
For these studies, FRB-IL2RB and FKBP-IL2RG components were split into two separate cassettes, one containing GFP and the other containing mCherry, to allow for selection of two independent integrations.
A timeline for key steps for dual AAV editing of CD4+ T cells and expansion with Rapalog is depicted in FIG. 124B. […] Briefly, human CD4+ T cells were edited using human TRAC gRNA_4, and #3240 (MND.HA.FOXP3.FKBP.IL2RG) and #3243 (MND.T1D4.FRB.IL2RB) AAV constructs (single-locus dual editing). Immediately following electroporation, the cells were placed in 2.5% FBS containing media (recovery media) for ~24 hours and then maintained in 20% FBS containing media throughout the rest of the experiment.

`CO[C@H]1[C@@H](O)[C@H](C)C[C@H](C)/C=C/C=C/C=C(\C)[C@@H](c2c[nH]c3c(C)cccc23)C[C@@H]2CC[C@@H](C)[C@@](O)(O2)C(=O)C(=O)N2CCCC[C@H]2C(=O)O[C@H]([C@H](C)C[C@@H]2CC[C@@H](O)[C@H](OC)C2)C[C@H](O)[C@H](C)/C=C(\C)[C@H]1O` [Rapalog]: the “expansion of double positive cells” value in experiment [1] came out at 32 fold. Besides, in experiment [2] (#3240 and #3243, cells recovered in 2.5% FBS, 7 days of Rapalog treatment), the “enrichment of double-positive cells” value is given as around 10 fold. In experiment [2] (#3240 and #3243, day 7, 100 nM AP21967 or 50 ng/mL IL-2, initial 1.6%), the “FOXP3/T1D4 double positive cells” value is recorded as 19.1%. Further, the GFP/mCherry double-positive cells in experiment [2] (donor R003471, enriched in presence of Rapalog (FIG. 32)) is 28.5%; in experiment [2] (donor R003657, enriched in presence of Rapalog (FIG. 32)) it was 13.8%; in experiment [2] (two-loci #3207 and #3251, repeat experiment (FIG. 65), 10 days, initial 15.4%), 54%. Besides, the “enrichment of double-positive antigen-specific Treg population” value in experiment [2] (over the course of the 10 day study) is “approximately 15 fold”.

(Values after patent US20230279351A1, “ARTIFICIAL ANTIGEN-SPECIFIC IMMUNOREGULATORY T (AIRT) CELLS” (Seattle Children's Hospital (dba Seattle Children's …, priority 2019, published 2023).)
